Reference: patent publication US10596150B2, “Antifungal agents” (F2G LIMITED, priority 2014, dated 2020)

Test system: A. fumigatus strain A1163
Experiment: Murine survival model of Aspergillus fumigatus infection (survival, kidney burden, serum galactomannan)
Assay type: in vivo, male CD-1 mice
Settings: for serum galactomannan indices: FIG. 6; for End of study tissue burden (kidney): surviving animals; for survival at end of study: therapy from 24 h post infection for 8 days
Method: Murine survival models are frequently used to assess the efficacy of antifungal drugs against Aspergillus. The models used in the development of Example 1 were carried out at Euprotec Ltd (Manchester) a contract research organisation (CRO) with extensive experience in the evaluation of antifungal drugs. The typical model involves the use of groups of 6-10 male CD-1 mice per treatment group. Mice are immunosuppressed with 200 mg/kg cyclophosphamide injected intraperitoneal 3 days prior to infection. A. fumigatus strain A1163 is cultured on Sabourauds agar for 4-6 days at 35° C. Spores are harvested in phosphate buffered saline (PBS)/Tween, the suspension diluted and the number of spores enumerated. Mice are then infected with an intravenous injection of A. fumigatus spores given through the lateral tail vein. The typical inoculum is 6-8×10^4 cfu/mouse and is sufficient to kill all untreated animals by Day 4-6. The animals die of IA and Aspergillus organisms can be detected in many body tissues. Treatment is typically commenced soon after infection but delays of up to 24 h following infection produce a more challenging model. Treatment is continued for 7-9 days. Treatment may be up to 3 times daily using an oral dosing. Following cessation of treatment, animals are observed for 1-2 days, and then sacrificed. Relevant controls treated with oral drug-free vehicle are always included; ideally there should be no survivors in this group. A positive control consisting of an antifungal drug such as Reference Example 10 was used. This compound consistently produces 100% survival at doses of 10 mg/kg b.i.d. dosed by the oral route. Most models are run as temporary neutropenic models where only a single dose of cyclophosphamide is administered.
The fungal burden in the kidney can be determined on animals surviving to the end of the study and this can help provide efficacy discrimination between groups where all animals survive. Tissue burdens are carried out by removing the kidneys from animals when they are culled at the end of the study. These are homogenised in saline and plated onto Sabourauds agar and incubated at 35° C. for 72 h. Aspergillus colonies are counted and the amount of aspergillus per gram of kidney calculated. The results are expressed as colony forming units per gramme (cfu/g). […] However, data from studies where tissue burden has been carried out on untreated animals at day 4 or 5 has shown that tissue burdens are typically in excess of 20,000 cfu/g and may exceed 100,000 cfu/g in some studies.
In some of the survival studies described below serum samples were collected from surviving mice at the end of the study or on mice that succumbed to infection during the study to examine the effect of Example 1 on galactomannan levels and to see if there was a relationship between galactomannan levels and survival.
The galactomannan assays were carried out on serum samples that had been stored frozen at −80° C. Samples were thawed and assayed using a Platelia Aspergillus Ag enzyme-linked immunosorbent assay (ELISA) kit (Biorad). The assay was modified slightly to take into account the small sample volumes available from mice. If assay results were high a repeat test was carried out on a sample diluted in normal mouse serum. The amount of galactomannan in a sample is presented as a galactomannan index. The mean galactomannan index for each group was calculated and is presented graphically against each treatment regimen.
The survival study carried assessed the dose response of Example 1. Example 1 was dosed orally to A. fumigatus infected mice at 2 dose levels 10 mg/kg b.i.d. and 3 mg/kg b.i.d. Therapy was initiated at 24 h post infection and therapy continued for 8 days. At the end of the study kidney burdens were measured on surviving animals. In addition serum samples were taken at the end of the study from all surviving animals and from each animal that died during the course of the study. […]

In the case of Cc1cc(-c2ccccc2)c(C(=O)C(=O)Nc2ccc(N3CCN(c4ncc(F)cn4)CC3)cc2)n1C [Example 1, 2-(1,5-dimethyl-3-phenyl-1H-pyrrol-2-yl)-N-(4-(4-(5-fluoropyrimidin-2-yl)piperazin-1-yl)phenyl)-2-oxoacetamide], the serum galactomannan indices (3 mg/kg b.i.d. oral, similar magnitude to untreated animals) is reported as “correspondingly high”, the “End of study tissue burden (kidney)” value (3 mg/kg b.i.d. oral) is reported as 3021 cfu/gm and the “survival at end of study” value (3 mg/kg b.i.d. oral) is reported as 10%. For the same molecule, the serum galactomannan indices (10 mg/kg b.i.d. oral) was “very low”, the “End of study tissue burden (kidney)” value (10 mg/kg b.i.d. oral) was 1114 cfu/gm and the “survival at end of study” value (10 mg/kg b.i.d. oral) was 100%.
